# Results reported in patent EP0335662B1, “Peptides” (BRITISH TECHNOLOGY GROUP LIMITED, priority 1988, dated 1989).
# Values joined by “and” are separate entries in the source; they are usually repeats but may differ in a detail not shown here. Identical values can stand only once. Like-named read-outs stand apart in the source and are kept apart here. Non-standard residues stand in square brackets, D forms with d. Residues, ends and D or L forms follow the SMILES beside them.
# Tests used:
# [1] = tested on: human blood mononuclear cells (MNC); test: PGE₂ release by blood mononuclear cells, radioimmunoassay; assay type: cell-based; details: in words
# Description: The effect of K(D)PT and indomethacin on PGE₂ release by human blood mononuclear cells (MNC) was investigated. The MNC were isolated from buffy coat residues by density gradient centrifugation (Ficoll-hypaque, Sigma) and resuspended in RPMI 1640 culture medium (Gibco) + 2% inactivated foetal calf serum (Imperial Laboratories). […] Values are means of quadruplicates ± s.e.m.'s. PGE₂ concentrations were measured by radioimmunoassay (NEN Research Products).
# [2] = tested on: hyperalgesia evoked by IL-1β; test: Modified Randall-Sellito rat paw pressure test: hyperalgesia evoked by IL-1β; assay type: in vivo, rats; details: 100 »g ipl, 30 minutes before 0.05U IL-1β ipl or ip
# Description: (§1) Hyperalgesia was evaluated by the application of a constant pressure of 20 mmHg to the hind paws of rats (Wistar strain, male, weight 135 - 170g) which was discontinued when animals presented a characteristic freezing reaction (reaction time). The intensity of hyperalgesia was quantified as the variation of the reaction time (Δ reaction time, sec) obtained by subtracting the value measured 1,2,3 or 4h after administration of the hyperalgesic agent from the pre-injection control reaction time (zero time). The experimenter was unaware of the group treatments.
# (§2) There were 5 animals per treatment group. […]
# gastric lesions = test: Gastric lesions after treatment; assay type: in vivo, mice; details: 32 mg/kg
# [3] = tested on: hyperalgesia evoked by IL-1β; details: cited from earlier work
# mice = details: administered to mice; Goerne et al 1982; cited from earlier work
# hot-plate test = details: injected into the brain; Herman et al 1985; cited from earlier work
# [4] = tested on: hyperalgesia evoked by PGE₂; test: Rat paw pressure test: hyperalgesia evoked by PGE₂; parameters: species or system rats; details: in vivo
# Description: as §1, §2
# [5] = tested on: hyperalgesia evoked by DbcAMP; test: Rat paw pressure test: hyperalgesia evoked by DbcAMP; parameters: species or system rats; details: in vivo
# Description: as §1
# The effect of the tripeptides KPV and K(D)PV on hyperalgesia evoked in rats by DbcAMP was studied. Treatments were given ip, 1h before DbcAMP was injected into the paw (ipl). There were 5 animals per treatment group. Delta reaction times were measured 3h after DbcAMP. […] The control was DbcAMP (100»g/paw). […]
# [6] = tested on: hot plate (55°C) reaction time; test: Standard hot plate (55°C) test; details: in vivo
# Description: A standard hot plate (55°C) test was carried out. […]
compound,measurement,setting,value
"COc1ccc2c(c1)c(CC(=O)O)c(C)n2C(=O)c1ccc(Cl)cc1 [Indomethacin, indomethacin]",effect on production of PGE₂ by MNC,[1],abolished PGE₂ production
same,"effect of pretreatment on hyperalgesic response, contralateral paws (CL)",[2],no effect
same,"effect of pretreatment on hyperalgesic response, treated paws (I)",[2],markedly attenuated
"C[C@@H](O)[C@H](NC(=O)[C@H]1CCCN1C(=O)[C@@H](N)CCCCN)C(=O)O [K(D)PT, Lys-D-Pro-Thr] (H-Lys-[dP]-Thr-OH)",gastric lesions,gastric lesions,No lesions were observed
Cc1c(N(C)CS(=O)(=O)O)c(=O)n(-c2ccccc2)n1C [dipyrone],antagonism of on-going hyperalgesia,"[3]; general statement on known analgesics, no data",able to antagonise on-going hyperalgesia
Lys-Pro,hyperalgesia on administration,mice,evoke hyperalgesia
same,antinociceptive action in a hot-plate test,hot-plate test,elicited antinociceptive action
Arg-Pro,hyperalgesia on administration,mice,evoke hyperalgesia
"CN1CC[C@]23c4c5ccc(O)c4O[C@H]2[C@@H](O)C=C[C@H]3[C@H]1C5 [Morphine, morphine]",change of delta reaction time vs control (= 100%),[4],-63.7%
same,delta reaction time,[4],6.1 ± 0.8 s
same,antagonism of on-going hyperalgesia,"[3]; rat, in vivo",able to antagonise on-going hyperalgesia
same,antagonism of hyperalgesia evoked by DbcAMP,[5],effective antagonist
same,change of delta reaction time vs control (= 100%),[5],-64.0%
same,delta reaction time,[5],6.2 ± 0.4 s
same,"reaction time difference, hot plate (55°C)",[6],3.52 s and 5.55 s
